Assay type in all cases: biochemical
One assay relates to M-type isozyme (PGAM-MM). As to the kind of experiment: Inhibition test using purified PGAM isozymes, M-type. The following applies: treatment with tetrathionic acid as PGAM inhibitor. The source says:
(§1) The assay method according to the present invention comprises treating a blood sample such as serum with a PGAM inhibitor to inactivate a specific isozyme, and then determining residual PGAM activity. For example, when tetrathionic acid is used as the PGAM inhibitor, almost 100% of M-type isozyme activity and about 50% of MB-type isozyme activity are lost, while B-type isozyme activity is hardly lost. Therefore, the B-type isozyme can be separately quantified by adding tetrathionic acid to serum to inactivate the M-type isozyme and measuring residual PGAM activity.
(§2) Incidently, according to the inhibition test using purified PGAM isozymes, only 50% of MB-type isozyme activity is lost by the treatment with tetrathionic acid, and 50% of the activity remains. However, since most of PGAM activities in normal serum and cerebral tissues are attributed to the B-type isozyme, residual activity of the MB-type isozyme can be practically disregarded in the case of diagnosis of cerebral apoplexy in a biological sample.

The test system of another assay is B-type isozyme (PGAM-BB). As to the kind of experiment: Inhibition test using purified PGAM isozymes, B-type. The following applies: treatment with tetrathionic acid as PGAM inhibitor.
Text: as §1, §2

For another assay, the target named is PGAM-B (Homo sapiens, UniProt P18669). As to the kind of experiment: Effect of potassium tetrathionate on PGAM-B standard, automatic assay method (NADH decrease rate assay). Conditions: for activity at 1900 µM / activity at 3800 µM / activity at 7600 µM: 5 min, PGAM-B standard (pooled serum base), 5 min reaction, read-out: PGAM-B activity relative to 0 mM potassium tetrathionate (=100); for activity at 1900 µM: final concentration 1.9 mM; for activity at 3800 µM: final concentration 3.8 mM; for activity at 7600 µM: final concentration 7.6 mM. The source says:
(§3) Namely, 3-phosphoglycerate (Glycerate-3-P) is converted into 2-phosphoglycerate (Glycerate-2-P) by PGAM-B in the presence of 2,3-bisphosphoglycerate (Glycerate-2,3-P2) and the resulting product is converted into PEP and H2 O by enolase. Then, PEP is converted into pyruvate and ATP by pyruvate kinase (PK) in the presence of ADP, and lactate dehydrogenase (LDH) is acted on pyruvate thus obtained in the presence of NADH to conduct the rate assay of the decrease of NADH.
(§4) Effect of potassium tetrathionate on PGAM-B and PGAM-M was examined by an automatic assay method.
(§5) Standard preparations of the B-type and M-type isozymes (pooled serum base) were used as samples. These were diluted 1/1 to 1/8 with physiological saline to serve as samples. To the thus prepared samples were added potassium tetrathionate of various concentrations. After the reaction was carried out for 5 minutes, the quantity of the B-type and M-type PGAMs were determined by the automatic assay method.
(§6) The quantity of PGAM-B and PGAM-M were respectively determined using the reagent of Example 2 by the automatic assay method, and the results shown in Table 2 below were obtained.
(§7) Potassium tetrathionate (molecular weight of 302.4) was added to and dissolved in the PGAM activity assay reagent (R-1) so as to give a concentration of 2.25 mM (final concentration of 1.9 mM) (15 mg of potassium tetrathionate was dissolved in 22 ml of the R-1 reagent) and the M-type isozyme was inactivated to prepare a B-type PGAM activity assay reagent.
(§8) Five μl of a serum sample was combined with 250 μl of the solution of Reagent 1 (R-1) in which potassium tetrathionate was dissolved, and the mixture was allowed to stand for 5 minutes. During this period, the M-type (and MB-type) PGAM was inactivated and inhibited, and then the B-type PGAM activity was determined using Reagent 2 (R-2).
(§9) The reaction was initiated (substrate start) by adding 41 μl of Reagent 2 (R-2) because it contained glycerate-3-phosphate (substrate). The assay was started about 1.5 minutes after the addition of Reagent 2.
(§10) The assay was carried out using Hitachi 7150 model automatic analyzer with setting the assay code to RATE-A: 32-39 and the measuring temperature to 37° C. The decrease in absorbance A 340 nm associated with the decrease of NADH was measured for about 1.5 minutes. It should be noted that the assay was carried out at the secondary wavelength of 405 nm.
(§11) One unit of the enzyme (1 U: 1 unit) was defined as the amount of the enzyme that reduces 1 μmol of NADH for 1 minute at 37° C. Actual measured values were calculated by multiplying the rate assay value by a calibrating factor (K FACTOR).

Another assay deals with PGAM-M (Homo sapiens, UniProt P15259). As to the kind of experiment: Effect of potassium tetrathionate on PGAM-M standard, automatic assay method (NADH decrease rate assay).
Text: as §3, §4, §5, §6, §7, §8, §9, §10, §11

Where [1] appears, read: dilution rate 1/1 (control 183 U/L).
The mark [2] stands for this setting: dilution rate 1/2 (control 91 U/L).
The mark [3] stands for this setting: dilution rate 1/4 (control 46 U/L).
[4] abbreviates: dilution rate 1/8 (control 22 U/L).

Like-named read-outs stand apart in the source and are kept apart here.

Sequence of PGAM-B (P18669 whole entry): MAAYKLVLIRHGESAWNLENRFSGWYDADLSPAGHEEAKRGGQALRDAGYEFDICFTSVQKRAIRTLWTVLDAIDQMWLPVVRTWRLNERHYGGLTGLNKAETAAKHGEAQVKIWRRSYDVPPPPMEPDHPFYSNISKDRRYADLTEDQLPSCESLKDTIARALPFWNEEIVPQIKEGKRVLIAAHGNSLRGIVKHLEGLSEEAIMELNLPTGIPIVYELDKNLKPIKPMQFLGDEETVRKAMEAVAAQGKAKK
Sequence of PGAM-M (P15259 whole entry): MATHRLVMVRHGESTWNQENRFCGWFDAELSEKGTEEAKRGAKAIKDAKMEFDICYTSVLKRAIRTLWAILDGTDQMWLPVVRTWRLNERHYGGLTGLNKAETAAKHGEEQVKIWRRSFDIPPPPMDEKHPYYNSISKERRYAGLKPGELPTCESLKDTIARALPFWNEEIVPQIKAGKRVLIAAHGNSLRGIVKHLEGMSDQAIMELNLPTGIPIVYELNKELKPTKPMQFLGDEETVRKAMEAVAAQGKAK

For the molecule `O=S(=O)(O)SSS(=O)(=O)O` [tetrathionic acid], the “M-type isozyme activity lost” value in the assay with M-type isozyme (PGAM-MM) is ~100%. Also, the “B-type isozyme activity lost (in words)” value in the assay on B-type isozyme (PGAM-BB) is “hardly lost”.

For the molecule `O=S(=O)([O-])SSS(=O)(=O)[O-].[K+].[K+]` [potassium tetrathionate], the activity at 1900 µM amounted to 98% at PGAM-B (setting [1]); 98% at PGAM-B (setting [2]); 97% on PGAM-B (setting [3]); 93% at PGAM-B (setting [4]); 0% on PGAM-M (5 min, PGAM-M standard (pooled serum base), dilution rate 1/8 (control 332 U/L), final concentration 1.9 mM, 5 min reaction, read-out: PGAM-M activity relative to 0 mM potassium tetrathionate (=100)). In addition, the activity at 3800 µM worked out at 92% on PGAM-B (setting [1]); 91% at PGAM-B (setting [2]); 86% on PGAM-B (setting [3]); 93% at PGAM-B (setting [4]); 0% at PGAM-M (5 min, PGAM-M standard (pooled serum base), dilution rate 1/8 (control 332 U/L), final concentration 3.8 mM, 5 min reaction, read-out: PGAM-M activity relative to 0 mM potassium tetrathionate (=100)). Besides, the activity at 7600 µM at PGAM-B (setting [1]) turned out to be 81%; on PGAM-B (setting [2]) it was 80%; on PGAM-B (setting [3]), 59%; at PGAM-B (setting [4]), 75%; at PGAM-M (5 min, PGAM-M standard (pooled serum base), dilution rate 1/8 (control 332 U/L), final concentration 7.6 mM, 5 min reaction, read-out: PGAM-M activity relative to 0 mM potassium tetrathionate (=100)), 0%. Besides, the “Effect on the B-type isozyme (in words)” value at PGAM-B (summary of Table 2) was “no effect was observed”. Further, the “Effect on the M-type isozyme (in words)” value at PGAM-M (summary of Table 2) is listed as “specifically inactivated”.
